Measured values taken from patent US20250282799A1, “SUBSTITUTED PYRIDO[4,3-d]PYRIMIDINES AS KRAS MODULATORS” (Alterome Therapeutics, Inc., priority 2023, published 2025).

tested on: KRAS G12V dependent lung adenocarcinoma cell line, NCI-H441; experiment: Cellular pERK (Thr202/Tyr204) FRET/HTRF assay; type: cell-based; conditions: Homo sapiens, NCI-H441, cellular pERK (Thr202/Tyr204) HTRF, NCI-H441 cells
Procedure, shortened: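 IC50 reflects inhibition of ERK1/2 Thr202/Tyr204 phosphorylation, quantified by HTRF after a 1 hr treatment of KRAS G12V-driven NCI-H441 cells. DMSO served as negative control.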

Compound | IC50
[2H]C1([2H])CC2(CC2)[C@@]2(C([2H])([2H])Oc3nc(N4CCOC[C@H]5[C@H](F)[C@H]54)c4cnc(-c5cc(N)cc6ccc(F)c(C#C)c56)c(F)c4n3)C[C@@]([2H])(F)CN12 (single isomer, unassigned) [Example 202] | < 50 nM
Cc1c(F)c(N)cc(-c2ncc3c(N4CCCC[C@H]5[C@H](F)[C@H]54)nc(OC[C@]45C/C(=C\F)CN4CCC54CC4)nc3c2F)c1C(F)(F)F [Example 380, 2-fluoro-5-(8-fluoro-4-((1S,7R,8S)-8-fluoro-2-azabicyclo[5.1.0]octan-2-yl)-2-(((R,E)-6′-(fluoromethylene)tetrahydrospiro[cyclopropane-1,1′-pyrrolizin]-7a′(5′H)-yl)methoxy)pyrido[4,3-d]pyrimidin-7-yl)-3-methyl-4-(trifluoromethyl)aniline] | 50 to 500 nM
C=C1CN2CCC3(CC3)[C@@]2(COc2nc(N3CCCC[C@H]4[C@H](F)[C@H]43)c3cnc(-c4cc(N)c(F)c(C)c4C(F)(F)F)c(F)c3n2)C1 [Example 379, 2-fluoro-5-(8-fluoro-4-((1S,7R,8S)-8-fluoro-2-azabicyclo[5.1.0]octan-2-yl)-2-(((R)-6′-methylenetetrahydrospiro[cyclopropane-1,1′-pyrrolizin]-7a′(5′H)-yl)methoxy)pyrido[4,3-d]pyrimidin-7-yl)-3-methyl-4-(trifluoromethyl)aniline] | 50 to 500 nM
[2H]C([2H])(Oc1nc(N2CCC(=O)C[C@H]3[C@H](F)[C@H]32)c2cnc(-c3cc(N)cc4cc(F)c(F)c(C#C)c34)c(F)c2n1)[C@@]12CCCN1C[C@H](F)C2 [Example 195, (1S,7R,8S)-2-(7-(3-amino-8-ethynyl-6,7-difluoronaphthalen-1-yl)-8-fluoro-2-(((2R,7aS)-2-fluorotetrahydro-1H-pyrrolizin-7a(5H)-yl)methoxy-d2)pyrido[4,3-d]pyrimidin-4-yl)-8-fluoro-2-azabicyclo[5.1.0]octan-5-one] | < 50 nM
[2H]C([2H])(F)Oc1c(F)ccc2cc(N)cc(-c3ncc4c(N5CCOC[C@H]6[C@H](F)[C@H]65)nc(OC[C@@]56CCCN5CC(=C)C6)nc4c3F)c12 [Example 189, 6-fluoro-4-(8-fluoro-4-((1S,7S,8S)-8-fluoro-5-oxa-2-azabicyclo[5.1.0]octan-2-yl)-2-(((S)-2-methylenetetrahydro-1H-pyrrolizin-7a(5H)-yl)methoxy)pyrido[4,3-d]pyrimidin-7-yl)-5-(fluoromethoxy-d2)naphthalen-2-amine] | < 50 nM
[2H]C([2H])(Oc1nc(N2CCOC[C@H]3[C@H](F)[C@H]32)c2cnc(-c3cc(N)cc4ccc(F)c(C#C)c34)c(F)c2n1)[C@@]12CCCN1C[C@H](CF)C2 (single isomer, unassigned) [Example 266] | < 50 nM
[2H]C([2H])(F)Oc1c(F)ccc2cc(N)cc(-c3ncc4c(N5CCOC[C@H]6[C@H](F)[C@H]65)nc(OC[C@@]56CCCN5C/C(=C\F)C6)nc4c3F)c12 [Example 188, 6-Fluoro-4-(8-fluoro-4-((1S,7S,8S)-8-fluoro-5-oxa-2-azabicyclo[5.1.0]octan-2-yl)-2-(((S,Z)-2-(fluoromethylene)tetrahydro-1H-pyrrolizin-7a(5H)-yl)methoxy)pyrido[4,3-d]pyrimidin-7-yl)-5-(fluoromethoxy-d2)naphthalen-2-amine] | < 50 nM
C#Cc1c(F)ccc2cc(N)cc(-c3ncc4c(N5CCOC[C@H]6[C@H](F)[C@H]65)nc(OC[C@@]56CCCN5CC(=C)C6)nc4c3C)c12 [Example 425, 5-ethynyl-6-fluoro-4-(4-((1S,7S,8S)-8-fluoro-5-oxa-2-azabicyclo[5.1.0]octan-2-yl)-8-methyl-2-(((S)-2-methylenetetrahydro-1H-pyrrolizin-7a(5H)-yl)methoxy)pyrido[4,3-d]pyrimidin-7-yl)naphthalen-2-amine] | < 50 nM
[2H]C([2H])(F)Oc1c(F)ccc2cc(N)cc(-c3ncc4c(N5CCOC[C@H]6[C@H](F)[C@H]65)nc(OC[C@@]56CCCN5CC5(CC5)C6)nc4c3F)c12 [Example 200, 4-(2-(((S)-dihydro-1′H,3′H-spiro[cyclopropane-1,2′-pyrrolizin]-7a′(5′H)-yl)methoxy)-8-fluoro-4-((1S,7S,8S)-8-fluoro-5-oxa-2-azabicyclo[5.1.0]octan-2-yl)pyrido[4,3-d]pyrimidin-7-yl)-6-fluoro-5-(fluoromethoxy-d2)naphthalen-2-amine] | < 50 nM
[2H]C([2H])(F)Oc1c(F)ccc2cc(N)cc(-c3ncc4c(N5CCOC[C@H]6[C@H](F)[C@H]65)nc(OC[C@@]56CCCN5C[C@@H](C)C6)nc4c3F)c12 (single isomer, unassigned) [Example 214] | < 50 nM
[2H]C([2H])(Oc1nc(N2CCOC[C@H]3[C@H](F)[C@H]32)c2cnc(-c3cc(N)c(F)c(C4CC4)c3C(F)(F)F)c(F)c2n1)[C@@]12CCCN1C[C@H](F)C2 [Example 270, 3-cyclopropyl-2-fluoro-5-(8-fluoro-4-((1S,7S,8S)-8-fluoro-5-oxa-2-azabicyclo[5.1.0]octan-2-yl)-2-(((2R,7aS)-2-fluorotetrahydro-1H-pyrrolizin-7a(5H)-yl)methoxy-d2)pyrido[4,3-d]pyrimidin-7-yl)-4-(trifluoromethyl)aniline] | 50 to 500 nM
[2H]C([2H])(F)Oc1c(F)ccc2cccc(-c3ncc4c(N5CCOC[C@H]6[C@H](F)[C@H]65)nc(OC[C@@]56CCCN5C/C(=C/F)C6)nc4c3F)c12 [Example 156, (1S,7S,8S)-8-fluoro-2-(8-fluoro-7-(7-fluoro-8-(fluoromethoxy-d2)naphthalen-1-yl)-2-(((S,E)-2-(fluoromethylene)tetrahydro-1H-pyrrolizin-7a(5H)-yl)methoxy)pyrido[4,3-d]pyrimidin-4-yl)-5-oxa-2-azabicyclo[5.1.0]octane] | < 50 nM

same assay, conditions: Homo sapiens, NCI-H441, cellular pERK HTRF, NCI-H441 (KRAS G12V) cells

Compound | IC50
[2H]C([2H])(Oc1nc(N2CCCC[C@H]3[C@H](F)[C@H]32)c2cnc(-c3cc(O)cc4ccc(F)c(C#C)c34)c(F)c2n1)[C@@]12CCCN1[C@H](C)[C@H](F)C2 [Example 474, 5-ethynyl-6-fluoro-4-(8-fluoro-2-(((2R,3R,7aS)-2-fluoro-3-methyltetrahydro-1H-pyrrolizin-7a(5H)-yl)methoxy-d2)-4-((1S,7R,8S)-8-fluoro-2-azabicyclo[5.1.0]octan-2-yl)pyrido[4,3-d]pyrimidin-7-yl)naphthalen-2-ol] | < 50 nM

same assay, conditions: Homo sapiens, NCI-H441, pERK HTRF, NCI-H441 cells (KRAS G12V)

Compound | IC50
[2H]C([2H])(F)Oc1c(F)c(F)cc2cc(N)cc(-c3ncc4c(N5CCCC[C@H]6[C@H](F)[C@H]65)nc(OC([2H])([2H])[C@@]56CCCN5C[C@H](F)C6)nc4c3F)c12 [Example 71, 6,7-Difluoro-4-(8-fluoro-4-((1S,7R,8S)-8-fluoro-2-azabicyclo[5.1.0]octan-2-yl)-2-(((2R,7aS)-2-fluorotetrahydro-1H-pyrrolizin-7a(5H)-yl)methoxy-d2)pyrido[4,3-d]pyrimidin-7-yl)-5-(fluoromethoxy-d2)naphthalen-2-amine] | < 50 nM
[2H]C([2H])(Oc1nc(N2CCCO[C@H]3[C@H](F)[C@H]32)c2cnc(-c3cccc4ccc(F)c(OCF)c34)c(F)c2n1)[C@@]12CCCN1C[C@H](F)C2 [Example 92, (1R,7S,8R)-8-Fluoro-6-(8-fluoro-7-(7-fluoro-8-(fluoromethoxy)naphthalen-1-yl)-2-(((2R,7aS)-2-fluorotetrahydro-1H-pyrrolizin-7a(5H)-yl)methoxy-d2)pyrido[4,3-d]pyrimidin-4-yl)-2-oxa-6-azabicyclo[5.1.0]octane] | < 50 nM
[2H]C1([2H])CCO[C@H]2C[C@H]2N1c1nc(OC([2H])([2H])[C@@]23CCCN2C[C@H](F)C3)nc2c(F)c(-c3cc(N)cc4cc(F)c(F)c(C#C)c34)ncc12 [Example 25, 4-(4-((1S,7R)-2-Oxa-6-azabicyclo[5.1.0]octan-6-yl-5,5-d2)-8-fluoro-2-(((2R,7aS)-2-fluorotetrahydro-1H-pyrrolizin-7a(5H)-yl)methoxy-d2)pyrido[4,3-d]pyrimidin-7-yl)-5-ethynyl-6,7-difluoronaphthalen-2-amine] | < 50 nM
[2H]C([2H])([2H])Oc1c(C#N)ccc2cc(N)cc(-c3ncc4c(N5CCCC[C@H]6[C@H](F)[C@H]65)nc(OC([2H])([2H])[C@@]56CCCN5C[C@H](F)C6)nc4c3F)c12 [Example 49, 6-Amino-8-(8-fluoro-4-((1S,7R,8S)-8-fluoro-2-azabicyclo[5.1.0]octan-2-yl)-2-(((2R,7aS)-2-fluorotetrahydro-1H-pyrrolizin-7a(5H)-yl)methoxy-d2)pyrido[4,3-d]pyrimidin-7-yl)-1-(methoxy-d3)-2-naphthonitrile] | < 50 nM
[2H]C([2H])(Oc1nc(N2CCCO[C@@H]3C[C@@H]32)c2cnc(-c3cc(O)cc4ccc(F)c(C#C)c34)c(F)c2n1)[C@@]12CCCN1C[C@H](F)C2 [Example 11, 4-(4-((1R,7S)-2-Oxa-6-azabicyclo[5.1.0]octan-6-yl)-8-fluoro-2-(((2R,7aS)-2-fluorotetrahydro-1H-pyrrolizin-7a(5H)-yl)methoxy-d2)pyrido[4,3-d]pyrimidin-7-yl)-5-ethynyl-6-fluoronaphthalen-2-ol] | 50 to 500 nM

same assay, conditions: cellular pERK HTRF, NCI-H441 (KRAS G12V) cells

Compound | IC50
[2H]C([2H])(Oc1nc(N2CCOC[C@H]3[C@H](F)[C@H]32)c2cc(C(F)(F)F)c(-c3cccc4sc(N)c(C#N)c34)c(F)c2n1)[C@@]12CCCN1C[C@H](F)C2 (atropisomer, axis not shown; (aS)) [Example 468, 2-amino-4-((R)-8-fluoro-4-((1S,7S,8S)-8-fluoro-5-oxa-2-azabicyclo[5.1.0]octan-2-yl)-2-(((2R,7aS)-2-fluorotetrahydro-1H-pyrrolizin-7a(5H)-yl)methoxy-d2)-6-(trifluoromethyl)quinazolin-7-yl)benzo[b]thiophene-3-carbonitrile] | < 50 nM
